Measurements published in US12297438B2, “Gene expression elements and systems and use thereof” (GENENEER LTD., priority 2019, dated 2025).
Counter-ions that a name gives are not always drawn.

Assays:
[1] = system: transgenic poplar trees with ECE in the CCR gene; assay: Lignin content in transgenic poplar carrying ECE-CCR; assay type: in vivo, Populus tremula×Populus alba; conditions: transgenic trees upon completion of BENZ treatment cycle
Description: Populus trichocarpa cv. Trichobel CCR cDNA (Accession No. AJ224986) is cloned in to pTA vector using standard PCR reaction. ECE assembled by Gibson in to the middle CCR gene by introducing artificial intron. The resulted sequence is cloned under a tandem repeat of the CaMV 35S constitutive promoter and is transferred into the binary vector pBIG-HYG conferring resistance to hygromycin. Binary vector is transferred into Agrobacterium strain LB4404.
Poplar (Populus tremula×Populus alba) plants are transformed by Agrobacterium as described (Leplé et al. 1992, Plant Cell Rep. 11:137-141.) Transformants are selected by hygromycin resistance. Transformation is confirmed by molecular analysis of the insertions.
Four-to-five-month old greenhouse-grown trees are sprayed daily with 100 μM BENZ during a period of 6 months. […]
RT-PCR analysis of CCR is performed at different stages of the growth and development of the trees. […] Quantification of cDNA molecules is performed in five replicates by qPCR machine.
Lignin content is analyzed in samples from different stages of the growth and development of the trees according to Dence, 1992 (Lignin determination. In: Dence C, Lin S, editors. Methods in Lignin Chemistry. Berlin: Springer-Verlag; 1992. pp. 33-61). […] Lignin is then extracted with CH2Cl2, dried over Na2SO4, evaporated under reduced pressure at 40° C., re-dissolved in 1 mL of CH2Cl2 and analyzed by GC-MS

[2] = system: hpt gene with ECE in transgenic tobacco seedlings; assay: Conditional expression of hygromycin resistance (hpt) gene with ECE in transgenic tobacco; assay type: in vivo; conditions: MS media versus MS+20 μM BENZ, seven days
Description: Expression of selection genes is required only during early stages of plant transformation. Following the establishment of a transgenic plant, expression of the selection gene is not required. The hpt gene, conferring resistance to hygromycin, is generated by standard PCR reaction on the pBIGHYG plasmid (binary plasmid) and cloned into pTA vector. The ECE regulatory element is inserted into the hpt gene just after the its ATG start codon by standard Gibson assembly. In addition, the reporting gene GUS: B-glucuronidase is cloned into the pTA vector downstream to the hpt gene under the 35S promoter.
The vector is transferred into Agrobacterium tumefaciens EHAP105.
Tobacco genetic transformation is carried using hygromycin as for selection using a standard transformation protocol. 20 μM BENZ is added to the regeneration and selection medium to facilitate the expression of the selection gene. […] Seeds of heterozygous plants with single insert are selected.
Ten days following planting plants transformed to either MS-based media or remained on MS+20 μM BENZ media. Seven day after, RNA is extracted from transgenic plants. cDNA is synthesized from 20 μg of total RNA using cDNA syntheses kit. Quantitative real-time PCR is conducted on 100 ng of cDNA using the hygromycin-encoding gene primers.

[3] = system: Arabidopsis thaliana protoplasts transformed with syz24-2.1 plasmid comprising the ECE within the GUS intron; assay: GUS reporter expression in Arabidopsis thaliana protoplasts (ECE within GUS intron); assay type: cell-based
Experimental: Arabidopsis protoplasts were prepared as previously described (Wu F-H et al. 2009. Plant methods 5:16 doi: 10.1186/1746-4811-5-16). Plasmids syz24-2.1 and a control plasmid 5060 (constitutive GUS expression) were transformed (in the presence or without 10 μM BENZ (BZ-CAS 121749-39-1-BZ) into protoplasts (Wu et al., supra). Transfected protoplasts were washed and cultured in W5 solution with or without BENZ (BZ) in 1% bovine serum albumin-coated 15 ml tubes for 16 h at 28° C. to allow expression of the transfected DNA. The GUS expression system enables detection of a functional β-glucuronidase when protoplasts expressing the gene are incubated with the enzyme substrate 5-bromo-4-chloro-3-indolyl glucuronide (X-Glu), where the product of the reaction is a clear blue color. As described hereinabove, the expression system of the invention was introduced into an intron within the GUS encoding gene. […] The following assays were designed: • 1. Non transformed protoplasts • 2. Non transformed protoplasts exposed to 10 μM BENZ • 3. Non transformed protoplasts exposed to 100 μM BENZ • 4. Protoplast transformed with plasmid syz24-2.1 without exposure to BENZ • 5. Protoplast transformed with plasmid syz24-2.1 exposed to 10 μM BENZ • 6. Protoplast transformed with plasmid syz24-2.1 exposed to 100 μM BENZ • 7. Protoplast transformed with plasmid 5060 without exposure to BENZ • 8. Protoplast transformed with plasmid 5060 exposed to 10 μM BENZ • 9. Protoplast transformed with plasmid 5060 exposed to 100 μM BENZ In all assays in which the transformed protoplasts were exposed to BENZ, the transformation and subsequent washes were performed in the presence of the corresponding BENZ concentration (10 or 100 μM). After the last wash, the protoplasts were suspended in W5 buffer containing 10 μM or 100 μM BENZ and placed at 28° C. for 48 h. Thereafter the protoplasts were collected (by spinning at 100gX3 minutes). Protoplasts were resuspended in 0.5 ml 0.5M monitol+0.5 mg X-glucuronide (sigma B5285) and incubated at 37° C. 24 h.

[4] = system: SBEIIb with ECE in transgenic rice; assay: SBEIIb expression and starch content in transgenic rice carrying ECE-SBEIIb; assay type: in vivo, rice (Nipponbare); conditions: rice grains 10 days post anthesis, activated by BENZ
Description: High levels of the starch branching IIb gene in rice (SBEIIb, GQ150904.1) are typically linked to lower amylose content. Downregulating the activity of SBEIIb can lead to rice seeds with higher amylose content. The SBEIIb coding sequence is cloned from Nipponbare cDNA into pTA vector using the standard PCR reaction. The resulted clone is manipulated to carry the ECE regulatory element. The resulted altered fragment is closed into rice-transformation vector containing the wHMWG promoter and NOS terminator. The vector also contains the hygromycin resistance gene under the control of the CaMV 35S promoter. The vector is transferred into Agrobacterium tumefaciens AGL1. […]
RNA is extracted from rice grains, 10 days post anthesis. cDNA is synthesized from 5 μg of total RNA using cDNA syntheses kit. Quantitative real-time PCR is conducted on 100 ng of cDNA using the SBEIIb primers.
Protein analysis is conducted on soluble native proteins extracted from rice grains obtained 10 days post anthesis. […] Signals are recorded by automatic film processor.
Mature panicles are analyzed for their starch content. Fully developed and mature seeds are collected, weighed, dried and ground and total starch is determined using Total Starch HK Assay (Megazyme) and resistant starch is determined using Resistant Starch Assay Kit (Megazyme).

[5] = system: F293 cells transfected with the ECE-CAS9 plasmid; assay: CAS activity in F293 cells transfected with ECE-CAS9 plasmid (Bpu10I cut/uncut ratio); assay type: cell-based; conditions: DMEM supplemented with 10 μM BENZ, 48 hours
Description: In one example, the ECE regulatory element of the present invention can be used to determine the expression level of the CRISPR-CAS9 complex (Gene Bank Accession No. KF264451) allowing timely editing of the genome. The viral (Px330) CRISPER CAS system can be acquired from “addgene” (plasmid #117919). The ECE regulatory element is synthesized with the sequence of the BseRI restriction site to produce an expression system of the invention having SEQ ID NO:51, and then to be inserted into the 117919 plasmid (SEQ ID NO:57). The ECE sequence is located within the artificial hybrid intron, known to increase transcription levels.
Plasmid was transfected in to F293 cells by Lipofectamine 3000 (L3000015 ThermoFisher) according to the manufacturer instructions. Immediately following transfection cells were incubated with either DMEM or DMEM supplemented with BENZ for 48 hours.
The sgRNA is designed to target the cyclin D1 gene (Accession BC023620) at the Bpu 10I restriction site (sgRNA=[…], SEQ ID NO:60). The efficiency of the CRISPER assay is determined by extracting the DNA, digesting it with Bpu10I and measuring, by bioanalyser, the ratio between the cut and uncut fragments, uncut indicates an efficient CAS activity.

[6] = system: Nicotiana benthamiana leaf discs transformed with Pzp 1503/syz24-1.2 plasmid (GUS + the mutated ECE); assay: GUS reporter expression in tobacco leaf discs (β-glucuronidase assay); assay type: cell-based; conditions: MS buffer with 50 μM BENZ
Experimental: Protocol 5 ml Agrobacterium starter (transfected with the relevant plasmids) were grown with the selection antibiotics at 28° C. with agitation of 350 rpm overnight. Thereafter, the solution was centrifuged for 5 min. at 4500 g. The pellet was resuspended in 10 ml Induction Medium supplemented with the relevant antibiotic and 100 μM Acetosyringone, incubated for 5-6 hours at 28° C., 250 rpm and then centrifuged for 5 min at 4500 g. The bacteria were resuspended in 10 ml Infiltration Medium supplemented with 200 μM Acetosyringone (1M in DMSO). The bacteria density is measured at 660 nm to obtain OD660=1.
Leaf discs were cut from Nicotiana Benthamiana plants and put in 24 wells with 400 μl of the relevant Agrobacterium with or without 50 μM BENZ. Vacuum was applied for 8 min and then slowly released, followed by additional vacuum cycle of 1 min and slow release and incubation for 10 min. The leaf discs were then separated from the Agrobacterium suspension and resuspended with MS buffer with or without 50 μM BENZ and incubated at 24° C. for three days. At the end of the incubation, the leaf discs were subjected to β-glucuronidase (GUS) assay.
β-Glucuronidase (GUS) Assay
• 1. […]

[7] = system: CCR5 expression in ECE included PBMC cells; conditions: 50 μM spermin
Experimental: Plasmid is transfected in to PBMC cells using standard protocol (lipofectamine) and selected for ECE insertion using NGS analyses. Cells are incubated in CTS™ OpTmizer™ (ThermoFisher A3705001) with or without 50 μM spermin. Cells are then stained with CCR5 antibody (BioLegend 359105) and passed through flow cytometry column to detect the level of CCR5 expression.

SMILES | lignin levels [1] | expression of hygromycin-encoding gene (quantitative real-time PCR) [2] | β-glucuronidase activity (blue color) ([3]; non-transformed protoplasts, 10 μM or 100 μM BENZ) | β-glucuronidase activity (blue color) ([3]; protoplasts transformed with control plasmid 5060 (constitutive GUS), 10 μM or 100 μM BENZ) | β-glucuronidase activity (blue color) ([3]; protoplasts transformed with syz24-2.1, W5 supplemented with 10 μM BENZ) | β-glucuronidase activity (blue color) ([3]; protoplasts transformed with syz24-2.1, W5 supplemented with 100 μM BENZ) | SBEIIb protein (Western blot) [4] | CAS activity (increase of uncut fragments) [5] | β-glucuronidase activity (blue color) ([6]; leaf discs transformed with Pzp 1503/syz24-1.2, three days) | β-glucuronidase activity (blue color) ([6]; leaf discs transformed with control plasmid (constitutive GUS)) | CCR5 expression [7]
CCNCCCNCCCNCCCNCC [BENZ, N^1,N^11-Diethylnorspermine tetrahydrochloride] | expected to be comparable to transgenic plants, and lower than wild type plants | reduced in the transgenic seedlings when grown on MS media compared to seedling that grow on MS+20 μM BENZ | not observed | β-glucuronidase activity irrespective of the presence of BENZ | only when cells were incubated with W5 supplemented with 100 μM BENZ | showed β-glucuronidase activity | increase in SBEIIb | increase in CAS activity | showed β-glucuronidase activity | expressed β-glucuronidase activity | –
NCCCNCCCCNCCCN [spermin, spermine] | – | – | – | – | – | – | – | – | – | – | expected to increase
